The structures appear in SMILES notation.

The nature of data set [1]: Encapsulation efficiency by Ribogreen assay. In kind it is physicochemical. The following applies: formulated at pH 5.
From the text: As used herein, “encapsulated” can refer to a nanoparticle that provides an active agent or therapeutic agent, such as a nucleic acid (e.g., a messenger RNA), with full encapsulation, partial encapsulation, or both. In a preferred embodiment, the nucleic acid is fully encapsulated in the nanoparticle. In the context of nucleic acid therapeutic agents, full encapsulation may be determined by a Ribogreen® assay. RiboGreen® is an ultra-sensitive fluorescent nucleic acid stain for quantitating oligonucleotides and single-stranded DNA or RNA in solution (available from Thermo Fisher Scientific—US).
Nanoparticles containing compound 3:DOPE:cholesterol:DMG-PEG2k at molar ratios of 1:0.25:0.9625:0.0375 and RNA at two different weight ratios were formulated using NanoAssemblr Benchtop (Precision NanoSystems Inc, Vancouver, BC, Canada)). RNA was diluted with DNase/RNase-Free, endotoxin free distilled water and sterile acetate buffer to a final desired pH. Total flow rate was maintained at 8 mL per min at a 3:1 ratio of aqueous to organic phase for formulating on the Benchtop. Using glassware depyrogenated by heating at 250° C. for 24 h, nanoparticles were dialyzed against sterile, endotoxin-free PBS using 20,000 molecular weight cutoff dialysis. Dialyzed nanoparticles were sterile filtered using 0.2 micron poly(ether sulfone) filters and characterized with a Zetasizer NanoZS machine (Malvern). The size distributions were characterized by a single peak with a low polydispersity index. Encapsulation efficiency was measured to be 95% for the nanoparticle composition containing compound 3 and SEAP mRNA or SEAP replicon RNA (formulated at pH 5) using Ribogreen® assay (Geall et al. 10.1073/pnas.1209367109 which is incorporated herein by reference as if fully set forth).
(§1) Nanoparticles containing the compound 8:cholesterol:DOPE:DMG-PEG2k at molar ratios of 1:2:1.5:0.0375 were formulated using NanoAssemblr Benchtop (Precision NanoSystems Inc, Vancouver, BC, Canada)). RNA was diluted with Dnase/Rnase-Free, endotoxin free distilled water and sterile citrate buffer to a final desired pH. Total flow rate was maintained at 8 mL per min at a 3:1 ratio of aqueous to organic phase for formulating on the Benchtop. Using glassware depyrogenated by heating at 250° C. for 24 hours, nanoparticles were dialyzed against sterile, endotoxin-free PBS using 20,000 molecular weight cutoff dialysis. Dialyzed nanoparticles were sterile filtered using 0.2 micron poly(ether sulfone) filters and characterized with a Zetasizer NanoZS machine (Malvern). The size distributions were characterized by a single peak with a low polydispersity index. Encapsulation efficiency was measured to be 89% for the nanoparticle composition containing compound 8 and Replicon SEAP RNA (formulated at pH 5) using Ribogreen® assay.
as §1, with “8 or compound 9:cholesterol:DOPE DMG-PEG2k” for “8:cholesterol:DOPE:DMG-PEG2k”, “7,000” for “20,000”, “81%” for “89%”, “Luciferase Ψ mRNA” for “Replicon SEAP RNA”, “assay. Encapsulation efficiency was measured to be 82% for the nanoparticle composition containing compound 9 and Luciferase Ψ mRNA (formulated at pH 5). […]” for “assay.”

The nature of data set [2]: Hydrodynamic size measurement by dynamic light scattering (Zetasizer). In kind it is physicochemical. As to conditions: for Z average (size of strongest intensity): FIG. 4; for Z average (size of strongest intensity) / polydispersity index: compound 8 and SEAP RNA, hand mixing; for Z average: DOPE, DMG-PEG 2000 and SEAP Replicon RNA. The method, then: Additionally, with reference to FIG. 2, nanoparticles were formulated by mixing 21 μl of an ethanol phase containing compound 5 or compound 6, cholesterol, DOPE, and DMG PEG 2000 (PEG-lipid, Avanti Polar Lipids) at molar ratio of 1:2:1.5:0.0375 with 63 μl of SEAP Replicon RNA encoding secreted embryonic alkaline phosphatase (diluted with UltraPure, DNase/RNase-free, endotoxin-free distilled water (Invitrogen) and sterile 100 mM (pH 5) citrate buffer to a final citrate concentration of 10 mM. The resulting nanoparticles contained 4:1 mass ratio of compound 5 or compound 6 to RNA. Formulations were diluted 100-fold for analysis of particle size distribution, Z-average, and derived count rate using a Zetasizer Nano ZS (Malvern Panalytical).
The “Z average” of the nanoparticle composition containing compound 5 or compound 6, cholesterol, DOPE, DMG-PEG 2000 and SEAP Replicon RNA as function of size was determined by dynamic light scattering (DLS). […] Referring to FIG. 2, the size distributions were characterized with a low polydispersity index, indicating a relatively monodisperse size.
Reference to FIG. 4, nanoparticles were formulated by mixing 21 μl of an ethanol phase containing Compound 8, cholesterol, DOPE, and DMG PEG 2000 (PEG-lipid, Avanti Polar Lipids) at molar ratio of 1:2:1.5:0.0375 with 63 μl of Replicon RNA encoding secreted embryonic alkaline phosphatase (SEAP) diluted with UltraPure, DNase/RNase-free, endotoxin-free distilled water (Invitrogen) and sterile 100 mM (pH 5 or pH3) citrate buffer to a final citrate concentration of 10 mM. The derived NPs were characterized with a Zetasizer NanoZS machine (Malvern). The size distributions were characterized by a single peak with a low polydispersity index.
FIG. 4 illustrates distribution of the nanoparticle composition measured as the intensity (Z average) based on size (d.nm; diameter in nm) of the nanoparticles. Referring to FIG. 4, the “Z average” of the nanoparticle composition containing compound 8 and SEAP RNA as function of size was determined by dynamic light scattering (DLS). […] The polydispersity index of nanoparticles formulated with buffer pH 3 and pH 5 is 0.13 and 0.11, respectively, indicating a relatively monodisperse size.
as §1
The “Z average” of the nanoparticle composition containing compound 8, cholesterol, DOPE, DMG-PEG 2000 and SEAP Replicon RNA as function of size was determined by dynamic light scattering (DLS). […] Referring to Table 2, the size distributions were characterized with a low polydispersity index, indicating a relatively monodisperse size.
Nanoparticles containing the compound 8 or compound 9:cholesterol:DOPE DMG-PEG2k at molar ratios of 1:2:1.5:0.0375 were formulated using NanoAssemblr Benchtop (Precision NanoSystems Inc, Vancouver, BC, Canada)). RNA was diluted with Dnase/Rnase-Free, endotoxin free distilled water and sterile citrate buffer to a final desired pH. […]

Assay in data set [3]: as above
In kind it is physicochemical. The following applies: cholesterol.

For data set [4], the system named is SEAP expression. Briefly: In vivo SEAP production in mouse serum (Phospha-Light assay). Further details: species or system mice.
The mark [5] stands for this setting: cholesterol:DOPE:DMG-PEG2k nanoparticles with Luciferase Ψ mRNA.
The mark [6] stands for this setting: Table 3, DOPE, DMG-PEG 2000 and Luciferase Ψ mRNA.
Where [7] appears, read: cholesterol:DSPC:DMG-PEG2k 50:38.5:10:1.5 nanoparticles with SEAP Ψ mRNA.
[8] abbreviates: FIG. 7, DSPC, DMG-PEG 2000 and SEAP Ψ mRNA.

On to `CCCCCCCCCCCCCCCCOC(=O)CCN(CCCCN(C)CCCNCCCOP(=O)(OCC)OCC)CCC(=O)OCCCCCCCCCCCCCCCC` [Compound 8], for which the Encapsulation efficiency in data set [1] (setting [5]) is 81%; in data set [1] (compound 8:cholesterol:DOPE:DMG-PEG2k with Replicon SEAP RNA, microfluidic mixing), 89%. Also, the figures for the “Z average (size of strongest intensity)” value in data set [2] (buffer pH 3) and in data set [2] (buffer pH 5) were 133.7 nm·days and 191.3 nm·days, respectively. Further, the Z average in data set [2] (Table 2, compound 8, cholesterol, microfluidic mixing) worked out at 78.2 nm·days; in data set [3] (setting [6]) it was 76.5 nm·days. Moreover, the values for the polydispersity index in data set [2] (buffer pH 3) and in data set [2] (buffer pH 5) were 0.13 and 0.11, respectively.

Regarding `CCCCCCCCCCSSCCCCCCOC(=O)CCN(CCCCN(C)CCCNC(=O)CCCCCCC/C=C\C[C@@H](O)CCCCCC)CCC(=O)OCCCCCCSSCCCCCCCCCC` [Compound 3], the “SEAP protein production in vivo” value in data set [4] (FIG. 1, SEAP replicon RNA and SEAP mRNA formulated with compound 3) is reported as “resulted in SEAP protein production”. Moreover, in data set [4] (formulations with 10:1 compound 3:RNA, mice, 2 μg SEAP mRNA or SEAP replicon RNA, serum 16 hrs later), the “SEAP expression in mouse serum, 10:1 versus 15:1 compound 3:RNA” value is on record as “higher expression”. Moreover, in data set [1] (nanoparticles compound 3:DOPE:cholesterol:DMG-PEG2k with SEAP mRNA or SEAP replicon RNA), the Encapsulation efficiency is 95%.

On to `CCCCCCCCCCCCOC(=O)CCCCCCC(=O)NCCCN(C)CCCN(CCC(=O)OCCCCCCCC)CCC(=O)OCCCCCCCC` [Compound 18], for which the Encapsulation efficiency in data set [1] (setting [7]) was found to be 84%. The compound further displayed a Z average in data set [3] (setting [8]) of 74.8 nm·days.

In the case of `CCCCCCCCCCCCn1cc(COC(=O)CCN(CCCN(C)CCCNCCCO[C@H]2O[C@@H](COC(C)=O)[C@H](OC(C)=O)[C@@H](OC(C)=O)[C@@H]2OC(C)=O)CCC(=O)OCc2cn(CCCCCCCCCCCC)nn2)nn1` [Compound 6], the Z average in data set [2] (FIG. 2, hand mixing with cholesterol, pH 5 citrate, 4:1 mass ratio to RNA) came to 122.0 nm·days.

Take `CCCCCCCCCCCCOC(=O)CCSSCCC(=O)NCCCN(C)CCCN(CCC(=O)OCCCCCCCC)CCC(=O)OCCCCCCCC` [Compound 13]: the “SEAP expression in mice serum, compound 13 compared to compound 18” value in data set [4] (FIG. 8, BALB/c mice, approximately 2 μg, SEAP Ψ mRNA nanoparticles formulated at pH 5) is given as “better SEAP expression”. The compound also displayed an Encapsulation efficiency in data set [1] (setting [7]) of 89%. In addition, the Z average in data set [3] (setting [8]) was found to be 129.5 nm·days.

In turn, `CCCCCCCCCCCCCCCCOC(=O)CCN(CCCCN(C)CCCNCCCO[C@@H]1O[C@H](COC(C)=O)[C@@H](OC(C)=O)[C@H](OC(C)=O)[C@H]1OC(C)=O)CCC(=O)OCCCCCCCCCCCCCCCC` [Compound 9] came in with an Encapsulation efficiency in data set [1] (setting [5]) of 82%. The same compound gave a Z average in data set [3] (setting [6]) of 80.9 nm·days.

For the origin of these results see US12491262B2, “Gene delivery agents” (TIBA Biotech LLC, priority 2023, dated 2025).
